Laboratory results taken from publication PMC6273912, “Novel 5-Substituted 2-(Aylmethylthio)-4-chloro-N-(5-aryl-1,2,4-triazin-3-yl)benzenesulfonamides: Synthesis, Molecular Structure, Anticancer Activity, Apoptosis-Inducing Activity and Metabolic Stability” (Molecules, 2016).
Like-named read-outs stand apart in the source and are kept apart here.

Experiments:
[1] = tested on: MCF-7 (breast cancer); assay: MTT cell viability assay, MCF-7; type: cell-based, human; conditions: Homo sapiens, MCF7, 72 h of incubation, mean ± SD
Procedure: (§1) All chemicals, if not stated otherwise, were obtained from Sigma-Aldrich (St. Louis, MO, USA). The MCF-7 cell line was purchased from Cell Lines Services (Eppelheim, Germany), the HeLa and HCT-116 cell lines were obtained from the Department of Microbiology, Tumor and Cell Biology, Karolinska Institute (Stockholm, Sweden). Cells were cultured in Dulbecco’s modified Eagle’s medium (DMEM) supplemented with 10% fetal bovine serum, 2 mM glutamine, 100 units/mL penicillin, and 100 μg/mL streptomycin. Cultures were maintained in a humidified atmosphere with 5% CO2 at 37 °C in an incubator (HeraCell, Heraeus, Langenselbold, Germany).
(§2) Cell viability was determined using the MTT (3-(4,5-dimethylthiazol-2-yl)-2,5-diphenyl-tetrazoliumbromide) assay. Stock solutions of the studied compounds were prepared in 100% DMSO. […] Cells were seeded in 96-well plates at a density of 5 × 10^3 cells/well and treated for 72 h with the examined compounds in the concentration range 1–100 μM (1, 10, 25, 50 and 100 μM). Following treatment, MTT (0.5 mg/mL) was added to the medium and cells were further incubated for 2 h at 37 °C. Cells were lysed with DMSO and the absorbance of the formazan solution was measured at 550 nm with a plate reader (1420 multilabel counter, Victor, Jügesheim, Germany). […] The experiment was performed in triplicate. Values are expressed as the mean ± SD of at least three independent experiments.

[2] = tested on: HCT-116 (colon cancer); assay: MTT cell viability assay, HCT-116; type: cell-based, human; conditions: 72 h of incubation, mean ± SD
Procedure: as §1, §2

[3] = tested on: HeLa as well as HCT-116 cells; assay: MTT cell viability assay, HeLa and HCT-116; type: cell-based, human; conditions: summary over the two cell lines; for IC50: Homo sapiens, read-out: IC50 toward HeLa as well as HCT-116
Procedure: as §1, §2

[4] = tested on: HeLa (cervical cancer); assay: MTT cell viability assay, HeLa; type: cell-based, human; conditions: for IC50: 72 h of incubation, mean ± SD
Procedure: as §1, §2

[5] = Metabolic stability with human liver microsomes and NADPH; type: in vitro ADME; conditions: liver microsomes
Procedure: Stock solutions of studied compounds were prepared at concentration of 10 mM in DMSO. […] Incubation mixture contained 10 μM of a studied derivative, 1 mM of NADPH (Sigma-Aldrich) and 0.5 mg/mL of human liver microsomes (HLM, Sigma-Aldrich) in potassium phosphate buffer (0.1 M, pH 7.4). Incubation was carried out in thermostat at 37 °C and started by addition of studied compound. 50 μL samples were taken after 5, 15, 30, 45 and 60 min. Enzymatic reaction was terminated by the addition of the equal volume of ice-cold acetonitrile containing 10 μM of alprazolam (Sigma-Aldrich) serving as internal standard (IS). Control incubations were performed without NADPH to assess chemical instability. After collection, samples were immediately centrifuged (10 min, 10,000 rpm) and resulted supernatant was directly analyzed or kept in −80 °C until LC-MS analysis. Natural logarithm of a compound over IS peak area ratio was plotted versus incubation time. Metabolic half-time (t1/2) was calculated from the slope of the linear regression, as reported in [48].
LC-MS analysis was performed on an Agilent 1260 system coupled to SingleQuad 6120 mass spectrometer (Agilent Technologies, Santa Clara, CA, USA). Ascentis Express ES-CN (2.1 mm × 100 mm, 2.7 μm, Supelco Analytical, Bellefonte, PA, USA) was used in reversed-phase mode with gradient elution starting with 50% of phase A (10 mM ammonium formate in water) and 50% of phase B (10 mM ammonium formate in acetonitrile-water mixture, 95:5 v/v). […] Total analysis time was 10 min at 25 °C, flow rate was 0.4 mL/min and the injection volume was 20 μL. The mass spectrometer was equipped with electrospray ion source and operated in positive ionization. Mass analyzer was set individually to each compound to detect [M + H]^+ pseudomolecular ions. MSD parameters of the ESI source were as follows: nebulizer pressure 50 psig (N2), drying gas […] (N2), drying gas temperature 300 °C, capillary voltage 3.5 kV, fragmentor voltage 100 V.

[6] = tested on: HCT-116, HeLa and MCF-7; assay: MTT cell viability assay, all tested cell lines together; type: cell-based; conditions: Homo sapiens; average over HCT-116, HeLa and MCF-7; read-out: average IC50 against all tested cell lines
Procedure: as §1, §2

[7] = tested on: MCF-7; assay: Mitochondrial membrane potential (JC-1), MCF-7; type: cell-based, human; conditions: MCF-7, 24 h, low and moderate concentrations
Procedure: Loss of the mitochondrial membrane potential (Δψm) is one of the earliest indicators of an apoptosis. It can be detected using fluorescent dye JC-1 (5,5′,6,6′-tetrachloro-1,1′,3,3′-tetraethylbenzimidazolylcarbocyanine iodide) exited with blue laser. JC-1 spontaneously forms dimer complexes (J aggregates) with red fluorescent or remain as a monomers with green fluorescence in cells with high and low Δψm, respectively.
Half an hour before the end of 24 h-treatment 2.5 μg/mL of JC-1 (5,5′,6,6′-tetrachloro-1,1′,3,3′-tetraethylbenzimidazolylcarbocyanine iodide) was added to the cell medium. As a negative control 100 μM CCCP (carbonyl cyanide 3-chlorophenylhydrazone) was used 15 min before JC-1 treatment. Following treatment cells were twice washed with PBS and analyzed with flow cytometer (LSR II, BD Biosciences).
Green and red fluorescence were observed using FL-1 (530 ± 30 nm) and FL-2 (585 ± 42 nm) channels, respectively. Percentage of cell population in red or green fluorescence gate indicated the level of Δψm. Decreasing red fluorescence cell population indicated lower Δψm.

[8] = tested on: MCF-7; assay: Cell cycle analysis (sub-G1, DAPI flow cytometry), MCF-7; type: cell-based, human; conditions: MCF-7, 24 h, mean ± SD
Procedure: One of the most common mechanisms in anticancer drug treatment is changes in cell cycle, which can be measured by DNA content. Cell cycle distribution in HCT-116, HeLa and MCF-7 cells was examined to determine cycle arrest and/or presence of sub-G1 after treatment with compounds 37 and 46. […] Cell populations data are expressed as the mean ± SD of at least three independent experiments.
Following treatment, cells were fixed in cold 70% ethanol for 30 min. Fixed cells were stained for 15 min in buffer containing 500 μg/mL RNAse A (EURx, Gdansk, Poland) and 2.5 μg/mL of DAPI (Sigma-Aldrich, Munich, Germany). The fluorescence of DAPI was measured at 440 ± 40 nm with a flow cytometer (LSR II, BD Biosciences, Mountain View, CA, USA). Each experiment was performed at least in triplicate. Data were analyzed off-line using the BD FACSDiva (BD Biosciences).

[9] = pH 7.4, human liver microsomes 0.5 mg/mL, 1 mM NADPH, 10 μM compound, pH 7.4, 37 °C, up to 60 min, read-out: In Vitro Metabolic Half-Life t1/2
[10] = pH 7.4, value in parentheses beside >60, beyond the 60 min incubation, human liver microsomes, NADPH, read-out: In Vitro Metabolic Half-Life t1/2 (min), value in parentheses

SMILES | IC50 [1] [µM] | IC50 ([2]; Homo sapiens, HCT-116, 72 h) [µM] | IC50 toward HeLa as well as HCT-116 [3] | IC50 ([4]; Homo sapiens, 72 h) [µM] | half-life at 10 μM [5, 9] [min] | IC50 [6] [µM] | half-life at 10 μM [5, 10] [min] | IC50 [3] [µM] | IC50 [2] [µM] | IC50 [4] [µM] | melting point [°C] | effect on mitochondrial membrane potential (Δψm) [7] | Sub-G1 cell population [8] | viability at 100 µM ([4]; Homo sapiens, HeLa, 72 h, 100 μM, read-out: Viability of cell line at 100 μM (HeLa)) [%]
COc1ccc(-c2cnnc(NS(=O)(=O)c3cc(C)c(Cl)cc3SCc3ccc(C(F)(F)F)cc3)n2)cc1 [Compound 35, 4-Chloro-N-[5-(4-methoxyphenyl)-1,2,4-triazin-3-yl]-5-methyl-2-[4-(trifluoromethyl)benzylthio]benzene-sulfonamide] | 78 ± 2 | 68 ± 3 |  | 69 ± 1 | 42.4 | < 71 |  |  |  |  |  |  |  | 
Cc1cc(S(=O)(=O)Nc2nncc(-c3cccc(F)c3)n2)c(SCc2cccc3ccccc23)cc1Cl [Compound 36, 4-Chloro-N-[5-(3-fluorophenyl)-1,2,4-triazin-3-yl]-5-methyl-2-[(naphthalene-1-yl)methylthio]benzene-sulfonamide] | 96 ± 4 | 49 ± 2 |  | 55 ± 2 | 13.9 | < 71 |  |  |  |  |  |  |  | 
COc1ccc(-c2cnnc(NS(=O)(=O)c3cc(C)c(Cl)cc3SCc3cccc4ccccc34)n2)cc1 [Compound 38, 4-Chloro-N-[5-(4-methoxyphenyl)-1,2,4-triazin-3-yl]-5-methyl-2-[(naphthalene-1-yl)methylthio]benzene-sulfonamide] | 69 ± 1 | 36 to 38 |  | 34 to 42 | < 5 | 50 |  |  | 38 ± 2 | 42 ± 1 |  |  |  | 
Cc1cc(S(=O)(=O)Nc2nncc(-c3ccc(C(F)(F)F)cc3)n2)c(SCc2c(C)noc2C)cc1Cl [Compound 40, 4-Chloro-2-[(3,5-dimethylizoxazol-4-yl)methylthio]-5-methyl-N-[5-(4-trifluoromethylphenyl)-1,2,4-triazin-3-yl]benzenesulfonamide] | 98 ± 3 | 77 ± 1 |  | 85 ± 2 |  |  |  | 51 to 85 |  |  |  |  |  | 
O=C(Nc1ccc(Cl)cc1)c1cc(S(=O)(=O)Nc2nncc(-c3ccc(C(F)(F)F)cc3)n2)c(SCc2ccccc2)cc1Cl [Compound 46, 4-Benzylthio-2-chloro-N-(4-chlorophenyl)-5-{N-[5-(4-trifluoromethylphenyl)-1,2,4-triazin-3-yl]sulfamoyl}-benzamide] | 59 ± 2 | 64 ± 1 |  | 80 ± 2 | > 60 | < 71 | 78.1 |  |  |  |  | remarkably decreased Δψm | 20% ± 5.6% | 
COc1ccc(-c2cnnc(NS(=O)(=O)c3cc(C(=O)Nc4ccc(Cl)cc4)c(Cl)cc3SCc3ccccc3)n2)cc1 [Compound 47, 4-Benzylthio-2-chloro-N-(4-chlorophenyl)-5-{N-[5-(4-methoxyphenyl)-1,2,4-triazin-3-yl]sulfamoyl}benzamide] | 78 ± 3 | 75 ± 5 |  | 79 ± 1 | 17.5 |  |  |  |  |  |  |  |  | 
Cc1ccc(NC(=O)c2cc(S(=O)(=O)Nc3nncc(-c4ccc(C(F)(F)F)cc4)n3)c(SCc3ccccc3)cc2Cl)cc1 [Compound 52, 4-Benzylthio-2-chloro-N-(4-methylphenyl)-5-{N-[5-(4-trifluoromethylphenyl)-1,2,4-triazin-3-yl]sulfamoyl}-benzamide] | 69 ± 1 | 70 ± 2 |  |  | 26.5 |  |  |  |  |  |  |  |  | 100

The remaining compounds from weak to strong by IC50 [1], led by results:

IC50 [1] [µM] | IC50 ([2]; Homo sapiens, HCT-116, 72 h) [µM] | IC50 toward HeLa as well as HCT-116 [3] | IC50 ([4]; Homo sapiens, 72 h) [µM] | half-life at 10 μM [5, 9] [min] | IC50 [6] [µM] | half-life at 10 μM [5, 10] [min] | IC50 [3] [µM] | IC50 [2] [µM] | IC50 [4] [µM] | melting point [°C] | SMILES | effect on mitochondrial membrane potential (Δψm) [7] | Sub-G1 cell population [8] | viability at 100 µM ([4]; Homo sapiens, HeLa, 72 h, 100 μM, read-out: Viability of cell line at 100 μM (HeLa)) [%]
120 ± 5 | 200 ± 4 | loss of activity | 100 ± 6 |  |  |  |  |  |  |  | Cc1cc(S(=O)(=O)Nc2nncc(-c3ccc(C(F)(F)F)cc3)n2)c(SCc2ccccc2)cc1Cl [Compound 28, 2-Benzylthio-4-chloro-5-methyl-N-[5-(4-trifluoromethylphenyl)-1,2,4-triazin-3-yl]benzenesulfonamide] |  |  | 
95 ± 3 | 83 ± 2 |  | 93 ± 1 |  |  |  |  |  |  | 208 to 211 | Cc1cc(S(=O)(=O)Nc2nncc(-c3cccc(F)c3)n2)c(SCc2c(C)noc2C)cc1Cl [Compound 39, 4-Chloro-2-[(3,5-dimethylizoxazol-4-yl)methylthio]-N-[5-(3-fluorophenyl)-1,2,4-triazin-3-yl]-5-methyl-benzenesulfonamide] |  |  | 
77 ± 2 | 140 ± 7 |  | 150 ± 6 | 17.6 |  |  |  |  |  |  | COc1ccc(-c2cnnc(NS(=O)(=O)c3cc(C)c(Cl)cc3SCc3ccccc3)n2)cc1OC [Compound 31, 2-Benzylthio-4-chloro-N-[5-(3,4-dimethoxyphenyl)-1,2,4-triazin-3-yl]-5-methylbenzenesulfonamide] |  |  | 
68 ± 3 | 51 ± 1 |  | 73 ± 1 | > 60 | < 71 | 154 | 51 to 85 |  |  |  | Cc1cc(S(=O)(=O)Nc2nncc(-c3ccc(C(F)(F)F)cc3)n2)c(SCc2ccc(C(F)(F)F)cc2)cc1Cl [Compound 34, 4-Chloro-5-methyl-2-[4-(trifluoromethyl)benzylthio]-N-[5-(4-trifluoromethylphenyl)-1,2,4-triazin-3-yl]-benzenesulfonamide] |  |  | 
67 ± 1 | 85 ± 2 |  | 90 ± 4 | 24.9 |  |  |  |  |  |  | COc1cccc(-c2cnnc(NS(=O)(=O)c3cc(C)c(Cl)cc3SCc3ccccc3)n2)c1 [Compound 30, 2-Benzylthio-4-chloro-N-[5-(3-methoxyphenyl)-1,2,4-triazin-3-yl]5-methylbenzenesulfonamide] |  |  | 
